ChEMBL document CHEMBL3108668, “Antitumor activity of jujuboside B and the underlying mechanism via induction of apoptosis and autophagy” (J Nat Prod, 2014)
Active and inactive are the calls of the source. The calls are words filed in the database; no cut-off is given here.

Tests used:
AGS [1] = assay: Induction of autophagy in human AGS cells assessed as massive vacuole formation at 50 uM after 24 hrs by acridine orange staining-based fluorescence microscopy in presence of bafilomycin A1; format: functional, cell-based
HCT-116 [2] = assay: Antitumor activity against human HCT116 cells xenografted in BALB/c nude mouse at 40 mg/kg, ip administered 3 times a week for 5 weeks relative to control; format: functional; details: route intraperitoneal
AGS [3] = assay: Induction of apoptosis in human AGS cells assessed as increase in FasL level at 100 uM after 24 hrs by Western blotting analysis in presence of bafilomycin A1; format: functional, cell-based
HCT-116 [4] = assay: Cytotoxicity against human HCT116 cells after 24 hrs by MTT assay; format: functional, cell-based
HCT-116 [5] = assay: Induction of apoptosis in human HCT116 cells assessed as late apoptotic cells at 100 uM after 24 hrs by annexin V-FITC/propidium iodide staining-based flow cytometry (reference value: 2.71%); format: functional
HCT-116 [6] = assay: Induction of autophagy in human HCT116 cells assessed as increase in LC3-2 level at 50 uM after 24 hrs by Western blotting analysis; format: functional, cell-based
AGS [7] = assay: Induction of apoptosis in human AGS cells assessed as reduction of caspase3 activation at 100 uM after 24 hrs by Western blotting analysis in presence of SB202190; format: functional, cell-based
AGS [8] = assay: Cytotoxicity against human AGS cells after 24 hrs by MTT assay; format: functional, cell-based
HCT-116 [9] = assay: Induction of apoptosis in human HCT116 cells assessed as early apoptotic cells at 150 uM after 24 hrs by annexin V-FITC/propidium iodide staining-based flow cytometry (reference value: 3.61%); format: functional
AGS [10] = assay: Induction of apoptosis in human AGS cells assessed as membrane blebbing at >100 uM after 24 hrs by acridine orange staining-based microscopy; format: functional, cell-based
HCT-116 [11] = assay: Induction of apoptosis in human HCT116 cells assessed as early apoptotic cells at 25 uM after 24 hrs by annexin V-FITC/propidium iodide staining-based flow cytometry (reference value: 3.61%); format: functional
AGS [12] = assay: Induction of apoptosis in human AGS cells assessed as late apoptotic cells at 150 uM after 24 hrs by annexin V-FITC/propidium iodide staining-based flow cytometry (reference value: 7.3%); format: functional
AGS [13] = assay: Induction of apoptosis in human AGS cells assessed as early apoptotic cells at 100 uM after 24 hrs by annexin V-FITC/propidium iodide staining-based flow cytometry (reference value: 6.6%); format: functional
AGS [14] = assay: Induction of apoptosis in human AGS cells assessed as procaspase-9 level at 25 to 150 uM after 24 hrs by Western blotting analysis; format: functional, cell-based
AGS [15] = assay: Induction of autophagy in human AGS cells assessed as massive vacuole formation at 50 uM after 24 hrs by fluorescence microscopy; format: functional, cell-based
AGS [16] = assay: Induction of apoptosis in human AGS cells assessed as apoptotic cells at 50 uM after 24 hrs by annexin V-FITC/propidium iodide staining-based flow cytometry; format: functional
HCT-116 [17] = assay: Antitumor activity against human HCT116 cells xenografted in BALB/c nude mouse assessed as reduction of Ki-67 expression at 40 mg/kg, ip administered 3 times a week for 5 weeks by immunohistochemical analysis; format: functional, organism-based; design: dose 40 mg/kg
AGS [18] = assay: Induction of apoptosis in human AGS cells assessed as increase in pJNK level at 25 to 150 uM after 24 hrs by Western blotting analysis; format: functional, cell-based
AGS [19] = assay: Induction of apoptosis in human AGS cells assessed as cell shrinkage at >100 uM after 24 hrs by acridine orange staining-based microscopy; format: functional
AGS [20] = assay: Cytotoxicity against human AGS cells at 100 uM after 24 hrs by MTT assay in presence of bafilomycin A1; format: functional, cell-based
HCT-116 [21] = assay: Induction of apoptosis in human HCT116 cells assessed as necrotic cells at 50 uM after 24 hrs by annexin V-FITC/propidium iodide staining-based flow cytometry (reference value: 0.68%); format: functional
AGS [22] = assay: Induction of apoptosis in human AGS cells assessed as early apoptotic cells at 150 uM after 24 hrs by annexin V-FITC/propidium iodide staining-based flow cytometry (reference value: 6.6%); format: functional
AGS [23] = assay: Induction of apoptosis in human AGS cells assessed as necrotic cells at 100 uM after 24 hrs by annexin V-FITC/propidium iodide staining-based flow cytometry (reference value: 0.12%); format: functional
AGS [24] = assay: Induction of apoptosis in human AGS cells assessed as late apoptotic cells at 50 uM after 24 hrs by annexin V-FITC/propidium iodide staining-based flow cytometry (reference value: 7.3%); format: functional
AGS [25] = assay: Induction of apoptosis in human AGS cells assessed as caspase-9 activation at 25 to 150 uM after 24 hrs by Western blotting analysis; format: functional, cell-based
HCT-116 [26] = assay: Induction of autophagy in human HCT116 cells assessed as massive vacuole formation at 50 uM after 24 hrs by acridine orange staining-based fluorescence microscopy in presence of bafilomycin A1; format: functional, cell-based
AGS [27] = assay: Induction of apoptosis in human AGS cells assessed as necrotic cells at 25 uM after 24 hrs by annexin V-FITC/propidium iodide staining-based flow cytometry (reference value: 0.12%); format: functional
AGS [28] = assay: Induction of apoptosis in human AGS cells assessed as reduction of FasL level at 100 uM after 24 hrs by Western blotting analysis in presence of SB202190; format: functional, cell-based
HCT-116 [29] = assay: Induction of apoptosis in human HCT116 cells assessed as cell shrinkage at >100 uM after 24 hrs by acridine orange staining-based microscopy; format: functional
AGS [30] = assay: Induction of apoptosis in human AGS cells assessed as increase in LC3-2 level at 50 uM after 24 hrs by Western blotting analysis in presence of bafilomycin A1; format: functional, cell-based
AGS [31] = assay: Induction of apoptosis in human AGS cells assessed as apoptotic cells at 25 uM after 24 hrs by annexin V-FITC/propidium iodide staining-based flow cytometry; format: functional
AGS [32] = assay: Induction of apoptosis in human AGS cells assessed as necrotic cells at 50 uM after 24 hrs by annexin V-FITC/propidium iodide staining-based flow cytometry (reference value: 0.12%); format: functional
AGS [33] = assay: Induction of apoptosis in human AGS cells assessed as increase in FasL level at 25 to 150 uM after 24 hrs by Western blotting analysis; format: functional, cell-based
AGS [34] = assay: Induction of apoptosis in human AGS cells assessed as apoptotic cells at 100 uM after 24 hrs by annexin V-FITC/propidium iodide staining-based flow cytometry; format: functional
AGS [35] = assay: Induction of apoptosis in human AGS cells assessed as caspase-3 activation after 24 hrs by Western blotting analysis; format: functional, cell-based
AGS [36] = assay: Induction of apoptosis in human AGS cells assessed as formation of apoptotic bodies at >100 uM after 24 hrs by acridine orange staining-based microscopy; format: functional, cell-based
AGS [37] = assay: Induction of apoptosis in human AGS cells assessed as apoptotic cells at 150 uM after 24 hrs by annexin V-FITC/propidium iodide staining-based flow cytometry; format: functional
HCT-116 [38] = assay: Induction of apoptosis in human HCT116 cells assessed as apoptotic cells after 24 hrs by annexin V-FITC/propidium iodide staining-based flow cytometry; format: functional, cell-based
AGS [39] = assay: Induction of apoptosis in human AGS cells assessed as increase in pp38 level at 25 to 150 uM after 24 hrs by Western blotting analysis; format: functional, cell-based

CC(C)=C[C@H]1C[C@](C)(O)[C@@H]2[C@H]3CC[C@@H]4[C@@]5(C)CC[C@H](O[C@@H]6OC[C@H](O)[C@H](O[C@@H]7O[C@H](CO)[C@@H](O)[C@H](O)[C@H]7O[C@@H]7OC[C@@H](O)[C@H](O)[C@H]7O)[C@H]6O[C@@H]6O[C@@H](C)[C@H](O)[C@@H](O)[C@H]6O)C(C)(C)[C@@H]5CC[C@@]4(C)[C@@]34CO[C@@]2(C4)O1
Activity (AGS [1]): inactive
Activity (HCT-116 [2]): 60%
Activity (AGS [3]): Active
Activity (HCT-116 [4]): Dose-dependent effect
IC50 (HCT-116 [4]; HCT-116, 24 h): 114 µM
Activity (HCT-116 [5]): 9.74%
Activity (HCT-116 [6]): Active
Activity (AGS [7]): inactive
Activity (AGS [8]): Dose-dependent effect
IC50 (AGS [8]): 107 µM
Activity (HCT-116 [9]): 43.39%
Activity (AGS [10]): Active
Activity (HCT-116 [11]): 2.64%
Activity (AGS [12]): 12.12%
Activity (AGS [13]): 16.41%
Activity (AGS [14]): inactive
Activity (AGS [15]): Active
Activity (AGS [16]): 15.78%
Activity (HCT-116 [17]): Active
Activity (AGS [18]): Active
Activity (AGS [19]): Active
Activity (AGS [20]): Active
Activity (HCT-116 [21]): 0.5%
Activity (AGS [22]): 27.43%
Activity (AGS [23]): 1.06%
Activity (AGS [24]): 7.05%
Activity (AGS [25]): inactive
Activity (HCT-116 [26]): inactive
Activity (AGS [27]): 0.55%
Activity (AGS [28]): inactive
Activity (HCT-116 [29]): Active
Activity (AGS [30]): Active
Activity (AGS [31]): 10.81%
Activity (AGS [32]): 0.53%
Activity (AGS [33]): Active
Activity (AGS [34]): 28.85%
Activity (AGS [35]): Dose-dependent effect
Activity (AGS [36]): Active
Activity (AGS [37]): 39.55%
Activity (HCT-116 [38]): Dose-dependent effect
Activity (AGS [39]): Active
